The text below walks through data of patent US20160175634A1 (priority 2014, published 2016).

Common to all, as to assay type: cell-based
The subject of assay [1] is Homoprotocatechuate 2,3-dioxygenase.
The target of another assay is T1, Azo reductase (Staphylococcus aureus, UniProt Q50H63).
T1 construct: expressed in transfected cells; host or cells: E. coli DH5 alpha
T1 sequence (Q50H63 1-188): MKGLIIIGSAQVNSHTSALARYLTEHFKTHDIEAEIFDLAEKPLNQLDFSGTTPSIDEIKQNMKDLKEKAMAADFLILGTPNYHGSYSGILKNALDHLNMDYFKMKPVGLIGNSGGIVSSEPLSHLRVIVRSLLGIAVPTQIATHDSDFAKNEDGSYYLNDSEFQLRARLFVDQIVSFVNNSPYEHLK

Assay [2] addresses T2, AtzA (Pseudomonas sp., UniProt P72156).
T2 construct: expressed in transfected cells; host or cells: E. coli DH5α (pMD4)
T2 sequence (P72156 1-474): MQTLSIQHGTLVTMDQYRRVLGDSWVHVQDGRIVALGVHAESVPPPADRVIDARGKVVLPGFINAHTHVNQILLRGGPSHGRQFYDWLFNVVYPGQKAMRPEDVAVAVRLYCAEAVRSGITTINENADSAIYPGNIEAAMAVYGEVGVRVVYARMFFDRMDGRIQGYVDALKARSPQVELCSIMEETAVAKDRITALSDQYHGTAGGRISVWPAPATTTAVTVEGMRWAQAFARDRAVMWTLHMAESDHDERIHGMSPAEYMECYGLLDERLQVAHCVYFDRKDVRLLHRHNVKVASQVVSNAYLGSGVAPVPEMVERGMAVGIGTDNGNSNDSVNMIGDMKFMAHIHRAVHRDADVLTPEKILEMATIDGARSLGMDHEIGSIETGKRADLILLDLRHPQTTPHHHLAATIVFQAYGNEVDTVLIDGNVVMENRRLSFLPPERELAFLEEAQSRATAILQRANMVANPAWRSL

The target of assay [3] is T2, AtzA. This is another data set of the same source.
Assay [4] has as its system Pseudomonas sp. NCIB 9816-4.
Assay [5] deals with T3, CAH (Moorella thermoacetica, UniProt Q2RGM7).
T3 construct: expressed in transfected cells; host or cells: E. coli BL21(DE3)(pET28b+CAH), IPTG-induced
T3 sequence (Q2RGM7 1-367): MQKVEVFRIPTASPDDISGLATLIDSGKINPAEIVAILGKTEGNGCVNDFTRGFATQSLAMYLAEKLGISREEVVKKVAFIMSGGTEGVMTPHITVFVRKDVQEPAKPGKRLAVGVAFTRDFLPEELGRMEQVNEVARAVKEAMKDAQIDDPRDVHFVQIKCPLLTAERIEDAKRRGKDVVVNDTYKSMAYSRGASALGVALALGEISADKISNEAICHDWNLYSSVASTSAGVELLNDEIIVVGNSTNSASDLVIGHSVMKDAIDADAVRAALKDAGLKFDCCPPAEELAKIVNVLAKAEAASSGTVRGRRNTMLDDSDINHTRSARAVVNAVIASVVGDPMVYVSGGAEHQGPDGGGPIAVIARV

Assay [6] has as its target T3, CAH. The source holds these as a separate data set.
In the next assay the test system is Escherichia coli DH5α.
For assay [7], the system named is Glutathione-S transferase.

Each structure is given as a SMILES string. “And” between values parts separate entries of the source, which are not always exact repeats. Equal values may be shown once. Where a name gives a salt, the structure may show the parent alone. A value given as a limit tells only on which side of the number the result lay.

`CC(=O)Oc1ccc(O)c(O)c1` [3,4 Dihydroxypheny acetate]: the “Ratio (free cells/gel)” value in [1] is 1-2.5.
Consider `CN(C)c1ccc(/N=N/c2ccccc2C(=O)O)cc1` [methyl red sodium salt], for which the “Ratio (free cells/gel)” value at Azo reductase is 1.8-3.7.
In the case of `CCNc1nc(Cl)nc(NC(C)C)n1` [Atrazine, 2-chloro-4-ethylamino-6-isopropylamino-1,3,5-triazine], at AtzA [2], the “atrazine removal, solutions left for 24 h” value is reported as “complete atrazine removal” and the “increase of degradation rate” value is reported as “three-folds”. On AtzA [3], the “enhancement of atrazine degradation rates” value is given as “threefold”; the “rate of atrazine removal, 75% phenyl gel compared to Teos gel” value is on record as “approximately 3 fold”; the “rate of hydroxyatrazine formation, 75% phenyl gel compared to Teos gel” value is “approximately 3 fold”.
For the compound `Oc1ccccc1` [Phenol], in assay [4], the “removal of single substrate from hydrocarbon solution (in words)” value is listed as “very low removal”.
Turning to `O=c1[nH]c(=O)[nH]c(=O)[nH]1` [Cyanuric acid], on CAH [5], the cyanuric acid removed entry is “over 7,000 M” and the “degradation of cyanuric acid (in words)” value is reported as “complete degradation”. In addition, at CAH [6], the “decrease of initial rate of cyanuric acid degradation” value is given as “approximately 50%”. In addition, on CAH [6] (15 h), the cyanuric acid level entry was “undetectable levels”.
Take `c1ccc2ccccc2c1` [Naphthalene]: in assay [4], the “concentration (below detection limit)” value is listed as under 1 nM and the “concentration left in the bulk solution (C/C0)” value is recorded as about 25%. In the assay with Escherichia coli DH5α, the final concentration was 215.39 ± 7.23 µM; the remaining concentration was 164.26 ± 8.90 µM and 107.67 ± 19.69 µM.
`O=[N+]([O-])c1ccc(Cl)c([N+](=O)[O-])c1` [1-chloro2,4-dinitrobenzene]: in assay [7], the “Ratio (free cells/gel)” value was about 3.8.
In the case of `Cc1ccc(O)cc1` [p-Cresol], the “removal of single substrate from hydrocarbon solution (in words)” value in assay [4] is recorded as “completely degraded”.
